These results are taken from patent US20260217732A1, “WRN INHIBITOR” (SUZHOU PUHE BIOPHARMA CO., LTD., priority 2022, published 2026).

Where two headings read alike, the source gives them in different places.

Data set [1] concerns SW48 colorectal cancer cells. In words: 2D antiproliferation on MSI-H SW48 cells, CTG, 5 days. It counts as cell-based. The note with it: for IC50 / inhibition at 38.15 pM / inhibition at 0.000152588 µM / inhibition at 0.000610352 µM / inhibition at 0.00244141 µM / inhibition at 0.00976562 µM / inhibition at 0.0390625 µM / inhibition at 0.15625 µM / inhibition at 0.625 µM / inhibition at […] / inhibition at 10 µM: Homo sapiens; for IC50: 120 h, SW48 MSI-H, 5 days; for inhibition at 38.15 pM: SW48, 0.038146973 nM; for inhibition at 0.000152588 µM: SW48, 0.152587891 nM; for inhibition at 0.000610352 µM: SW48, 0.610351563 nM; for inhibition at 0.00244141 µM: SW48, 2.44140625 nM; for inhibition at 0.00976562 µM: SW48, 9.765625 nM; for inhibition at 0.0390625 µM: SW48, 39.0625 nM; for inhibition at 0.15625 µM: SW48, 156.25 nM; for inhibition at 0.625 µM: SW48, 625 nM; for inhibition at […]: SW48, 2500 nM; for inhibition at 10 µM: SW48, 10000 nM. Summed up: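 MSI-H SW48 colorectal cells in RPMI1640 with 10% FBS exposed to graded compound concentrations for 5 days at 37 °C, 5% CO2. Viability read as CellTiter-Glo ATP luminescence after 30 min.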

In data set [2] the test system is HT-29 colorectal cancer cells. Put plainly: 2D antiproliferation on MSS HT-29 cells, CTG, 5 days. It counts as cell-based. The note with it: Homo sapiens, 120 h, HT-29 MSS. A digest of the protocol: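 HT-29 (MSS) colorectal cells in McCoy's 5A with 10% FBS were exposed to a range of compound concentrations for 5 days at 37° C, 5% CO2. Viability was read as CellTiter-Glo luminescence after 30 min, which reflects ATP content.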

The nature of data set [3]: in vivo. To be noted: female, CD1, mouse.
Protocol: (§1) Mouse Pharmacokinetic Evaluation Experiment
(§2) CD1 female mice were used as test animals to be administered orally/intravenously (with oral dosage of 10 mg/kg or intravenous dosage of 2 mg/kg).
(§3) Experimental scheme: The oral administration group comprised 3 mice per group (Solvent: 10% Hβ-CD-pH7.4), and the intravenous group comprised 3 mice per group. […] The blood concentration in the plasma of mice was determined using the LC/MS/MS method after the oral or intravenous administration, respectively, and the collected data were calculated using the AB Sciex QTRAP 6500 software.
For data set [4], the target named is T1, WRN enzyme (Homo sapiens, UniProt Q14191).
T1 construct: 10 μL (2×) of WRN enzyme solution was added
In words: WRN helicase hydrolysis (unwinding) of double-stranded DNA, fluorescence assay. The note with it: 30 min pre-incubation, 60 min reaction. It counts as biochemical. As for the experimental part: • The molecules of the present disclosure were tested for their activities on the WRN helicase hydrolysis of double-stranded DNA (Table 1).
A working solution to be tested and a buffer were prepared. The compound to be tested was dissolved in DMSO and subjected to 4× dilution (with 10 μM final concentration as the starting concentration). 0.2 μL of the solution of the compound to be tested was added to the 384-well plate and 10 μL (2×) of WRN enzyme solution was added. The solution was incubated in the dark for 30 minutes. Then, 10 μL of a substrate detection solution containing double-stranded DNA was added to initiate the reaction (the DNA has a length of 19 bp, and labeled with TAMRA and BHQ2 at 3′ and 5′-ends, respectively). The solution was incubated at room temperature for 60 minutes. The inhibitory activities (IC50) against WRN enzyme were calculated based on the change of Ex530/Em590 in the blank group (DMSO) and the compound group.

The conditions of data set [5]: female, CD1, mouse, in vivo.
Protocol: as §1, §2, §3
The subject of data set [6] is SW48 (MSI-H) colorectal cancer tumor cells. In words: In vivo efficacy, SW48 xenograft in nude mice. The arrangement: species or system BALB/c nude mice. To be noted: QD, oral; for TGI: 21 days; for Tumor Volume D 1: day 1; for Tumor volume D 21: day 21. As for the experimental part:
In vivo efficacy experiment in BALB/C nude mice. Details are as follows:
SW48 (MSI-H) colorectal cancer tumor cells were cultured (in an L15 medium with 10% fetal bovine serum), and inoculated into 6-8 week old female BALB/c nude mice (with body weight of about 20 g). All the mice were inoculated subcutaneously. The mice were raised in an SPF-grade experimental environment, and all the mice were free to take commercially certified standard diets. When the tumors grew to an average volume of about 160 mm^3 in mice, the test compound was orally administered daily. […] The tumor volume was measured with a two-dimensional caliper three times a week, and the animals were weighed every day. […] The volume calculation formula is: V=1/2a*b^2, where a represents the long diameter of the tumor and b represents the short diameter of the tumor.

The mark [7] stands for this setting: read-out: Average Value/Inhibition Rate.
[8] abbreviates: read-out: Test 1/Inhibition Rate.
Where [9] appears, read: read-out: Test 2/Inhibition Rate.

T1 sequence (Q14191 whole entry): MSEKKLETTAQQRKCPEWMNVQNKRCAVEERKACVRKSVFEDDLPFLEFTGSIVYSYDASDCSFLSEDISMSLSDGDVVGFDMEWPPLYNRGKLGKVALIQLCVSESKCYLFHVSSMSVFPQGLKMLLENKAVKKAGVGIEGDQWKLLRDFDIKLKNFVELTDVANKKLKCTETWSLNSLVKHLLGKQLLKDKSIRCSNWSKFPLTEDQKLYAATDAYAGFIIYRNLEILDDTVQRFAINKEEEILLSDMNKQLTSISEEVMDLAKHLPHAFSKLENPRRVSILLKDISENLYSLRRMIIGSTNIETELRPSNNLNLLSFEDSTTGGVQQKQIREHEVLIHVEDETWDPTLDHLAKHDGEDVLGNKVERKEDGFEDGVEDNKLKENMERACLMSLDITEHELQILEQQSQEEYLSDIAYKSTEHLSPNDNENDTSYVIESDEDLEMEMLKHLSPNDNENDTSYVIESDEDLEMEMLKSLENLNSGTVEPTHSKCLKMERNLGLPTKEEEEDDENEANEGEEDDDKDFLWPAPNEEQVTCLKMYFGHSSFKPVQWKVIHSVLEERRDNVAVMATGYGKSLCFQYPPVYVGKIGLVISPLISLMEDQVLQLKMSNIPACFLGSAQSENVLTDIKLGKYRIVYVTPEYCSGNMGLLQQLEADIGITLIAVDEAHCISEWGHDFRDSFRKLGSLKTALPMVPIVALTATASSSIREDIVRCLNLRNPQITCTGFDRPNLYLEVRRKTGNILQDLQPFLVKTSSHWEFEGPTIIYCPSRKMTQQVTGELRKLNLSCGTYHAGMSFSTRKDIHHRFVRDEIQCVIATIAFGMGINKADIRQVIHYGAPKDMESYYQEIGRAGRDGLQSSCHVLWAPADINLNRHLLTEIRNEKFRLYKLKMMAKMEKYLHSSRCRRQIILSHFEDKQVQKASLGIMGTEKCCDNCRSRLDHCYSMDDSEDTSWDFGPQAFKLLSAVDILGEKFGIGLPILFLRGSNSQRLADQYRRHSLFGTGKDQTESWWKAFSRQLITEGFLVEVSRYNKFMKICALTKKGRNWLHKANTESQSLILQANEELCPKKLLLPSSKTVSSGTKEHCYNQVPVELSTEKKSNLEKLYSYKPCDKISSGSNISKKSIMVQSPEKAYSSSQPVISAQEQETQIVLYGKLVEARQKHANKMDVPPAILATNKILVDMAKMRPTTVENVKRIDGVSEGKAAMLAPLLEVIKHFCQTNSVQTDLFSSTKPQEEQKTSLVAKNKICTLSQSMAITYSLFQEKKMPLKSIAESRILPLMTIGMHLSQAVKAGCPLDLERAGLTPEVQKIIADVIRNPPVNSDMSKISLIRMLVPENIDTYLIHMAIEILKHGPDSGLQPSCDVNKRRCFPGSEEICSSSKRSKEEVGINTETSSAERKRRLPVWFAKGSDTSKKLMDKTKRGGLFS

As to `CCc1c(N2CCN(C(=O)c3ncnc(C)c3O)CC2)c(=O)n2nc(-c3cc4c(s3)COC4)nc2n1CC(=O)Nc1ccc(Br)c2ccoc12` [P59], the midpoint of inhibition in data set [1], the IC50, lay at 39 nM. Moreover, the IC50 – broadly, the concentration that gives 50% inhibition – in data set [2] was over 10 µM. Further, in data set [3] (iv, 2 mg/kg), the AUC(0-t) (commonly exposure summed from dosing to a finite time, without extrapolation to infinity) was 2970 ng·h/mL; the C0 came to 5260 ng/mL; the clearance (in general, a measure of how efficiently the substance is removed, as volume per time) amounted to 11.2 mL/min/kg; the half-life (commonly the time in which the quantity being followed falls by half) was 54 min. Besides, in data set [3] (po, 10 mg/kg), the AUC(0-t) was 6070 ng·h/mL; the peak level (Cmax) was 2850 ng/mL; the time to peak (Tmax) (as a rule, the time at which the peak concentration occurs) was found to be 15 min; the half-life is 78 min. Besides, the IC50 in data set [4] came to 1.5 nM. The compound also came in with a F in data set [5] of 41%.

With `CCc1c(N2CCN(C(=O)c3ncnc(C)c3O)CC2)c(=O)n2nc(-c3cc4c(s3)COC4)nc2n1CC(=O)Nc1ccc(C(F)(F)F)c2ccoc12` [P57], the concentration for half-maximal inhibition (IC50) in data set [1] stood at 34 nM. The 50% inhibitory concentration (IC50) in data set [2] was over 10 µM. Moreover, in data set [3] (iv, 2 mg/kg), the AUC(0-t) stood at 3150 ng·h/mL, the C0 worked out at 2920 ng/mL, the clearance amounted to 10.5 mL/min/kg and the half-life was 72 min. Moreover, in data set [3] (po, 10 mg/kg), the area under the curve AUC(0-t) came out at 8930 ng·h/mL; the highest concentration (Cmax) (in general, the peak of the concentration-time curve) stood at 4260 ng/mL; the time of peak concentration (Tmax) was 30 min; the half-life is 84 min. In data set [4], this compound returned an IC50 of 1.3 nM. The F in data set [5] was 57%.

For the compound `CCc1c(N2CCN(C(=O)c3ncnc(C)c3O)CC2)c(=O)n2nc(-c3cc4c(s3)COC4)nc2n1CC(=O)Nc1ccc(Br)cc1Cl` [P24], the midpoint of inhibition in data set [1], the IC50, lay at 39 nM. Also, in data set [1] (setting [7]), the inhibition at 38.15 pM was -4.41%, the inhibition at 0.000152588 µM was -3.37%, the inhibition at 0.000610352 µM was -6.66% and the inhibition at 0.00244141 µM was -5.26%. Further, in data set [1] (setting [7]), the inhibition at 0.00976562 µM was -8.31%, the inhibition at 0.0390625 µM was 43.7%, the inhibition at 0.15625 µM is 98.7% and the inhibition at 0.625 µM is 97.4%. In data set [1] (setting [7]), the inhibition at […] was 97.6% and the inhibition at 10 µM is 97.3%. In data set [1] (setting [8]), the inhibition at 38.15 pM is -3.47%, the inhibition at 0.000152588 µM is -6.51%, the inhibition at 0.000610352 µM was -6.64% and the inhibition at 0.00244141 µM is -4.87%. Besides, in data set [1] (setting [8]), the inhibition at 0.00976562 µM was -8.85%, the inhibition at 0.0390625 µM came out at 40.3%, the inhibition at 0.15625 µM came to 98.6% and the inhibition at 0.625 µM is 97.6%. In data set [1] (setting [8]), the inhibition at […] is 96.9% and the inhibition at 10 µM came to 97.4%. Moreover, in data set [1] (setting [9]), the inhibition at 38.15 pM was -5.36%, the inhibition at 0.000152588 µM was -0.227%, the inhibition at 0.000610352 µM was -6.68% and the inhibition at 0.00244141 µM was -5.64%. Further, in data set [1] (setting [9]), the inhibition at 0.00976562 µM is -7.77%, the inhibition at 0.0390625 µM was found to be 47.1%, the inhibition at 0.15625 µM stood at 98.8% and the inhibition at 0.625 µM was 97.2%. Further, in data set [1] (setting [9]), the inhibition at […] worked out at 98.3% and the inhibition at 10 µM was determined as 97.3%. For the same compound, in data set [2], the IC50 is over 10 µM. For the same compound, in data set [4], the 50% inhibitory concentration (IC50) was 1.1 nM. In addition, in data set [6] (50 mg/kg), the TGI is 105%, the “Tumor Volume D 1” value is recorded as 161 mm^3 and the “Tumor volume D 21” value was found to be 72 mm^3.

The compound `CCc1c(N2CCN(C(=O)c3ncccc3O)CC2)c(=O)n2nc(-c3ccc(CO)s3)nc2n1CC(=O)Nc1ccc(C(F)(F)F)cc1Cl` [P9] showed an IC50 in data set [1] of 54 nM. The IC50 in data set [2] was over 10 µM. Moreover, in data set [3] (iv, 2 mg/kg), the AUC(0-t) stood at 1230 ng·h/mL, the C0 amounted to 2840 ng/mL, the clearance stood at 27 mL/min/kg and the half-life was 54 min. For the same compound, in data set [3] (po, 10 mg/kg), the AUC(0-t) is 1520 ng·h/mL, the peak concentration (Cmax) stood at 695 ng/mL, the Tmax turned out to be 60 min and the half-life was 84 min. In data set [4], the IC50 is 1.2 nM. In data set [5], the F came to 25%.

Turning to `CCc1c(N2CCN(C(=O)c3ncnc(C)c3O)CC2)c(=O)n2nc(-c3cc4c(s3)COC4)nc2n1CC(=O)Nc1ccc(C(F)(F)F)cc1Cl` [P7], the “inhibitory activity on SW48 cells” value in data set [1] (39 nM) is recorded as “high inhibitory activity”. In data set [1], this compound returned a concentration for half-maximal inhibition (IC50) of 39 nM. For the same compound, in data set [1] (setting [7]), the inhibition at 38.15 pM was 6.64%, the inhibition at 0.000152588 µM amounted to 3.66%, the inhibition at 0.000610352 µM is 4.19% and the inhibition at 0.00976562 µM worked out at 2.23%. Moreover, in data set [1] (setting [7]), the inhibition at 0.0390625 µM is 54.8%, the inhibition at 0.15625 µM worked out at 99%, the inhibition at 0.625 µM came out at 100% and the inhibition at […] came to 101%. The inhibition at 10 µM in data set [1] (setting [7]) is 101%. Moreover, in data set [1] (setting [8]), the inhibition at 38.15 pM came out at 2.01%, the inhibition at 0.000152588 µM is -6.35%, the inhibition at 0.000610352 µM was -2.7% and the inhibition at 0.00976562 µM is -0.534%. Also, in data set [1] (setting [8]), the inhibition at 0.0390625 µM turned out to be 56%, the inhibition at 0.15625 µM turned out to be 98.8%, the inhibition at 0.625 µM turned out to be 100% and the inhibition at […] was determined as 101%. For the same compound, the inhibition at 10 µM in data set [1] (setting [8]) was determined as 101%. Besides, in data set [1] (setting [9]), the inhibition at 38.15 pM came out at 11.3%, the inhibition at 0.000152588 µM was 13.7%, the inhibition at 0.000610352 µM came to 11.1% and the inhibition at 0.00976562 µM came out at 4.98%. In data set [1] (setting [9]), the inhibition at 0.0390625 µM was 53.6%, the inhibition at 0.15625 µM came out at 99.2%, the inhibition at 0.625 µM was found to be 100% and the inhibition at 10 µM is 101%. The compound further yielded an IC50 in data set [2] of over 10 µM. Moreover, the IC50 in data set [4] was determined as 1.4 nM. Also, in data set [6] (20 mg/kg), the TGI turned out to be 82%, the “Tumor Volume D 1” value is 158 mm^3 and the “Tumor volume D 21” value came out at 491 mm^3. In data set [6] (50 mg/kg), the TGI was found to be 105%, the “Tumor Volume D 1” value turned out to be 158 mm^3 and the “Tumor volume D 21” value turned out to be 71 mm^3. Further, in data set [6] (120 mg/kg), the TGI is given as 105%, the “Tumor Volume D 1” value stood at 174 mm^3 and the “Tumor volume D 21” value is reported as 24 mm^3.
